How the values were obtained:
anesthetized rabbits = assay: Amino acid infusion with arginine raised to about 50% of the mixture (Example 6); assay type: in vivo, rabbit
Excerpt: Muscle protein synthesis was stimulated in anesthetized rabbits when arginine was increased to about 50% of the total mixture of amino acids infused. […] The mechanism by which arginine activates the initiation of protein synthesis is the same as leucine. Further, arginine is relatively deficient in the elderly. Thus, addition of arginine may work in concert with leucine to activate protein synthesis in elderly.

muscle protein synthesis = details: tightly controlled laboratory setting, glucose infused to maintain euglycemia; cited from earlier work

| Compound | Muscle protein synthesis (anesthetized rabbits; arginine about 50% of the total mixture of amino acids infused) | Muscle protein breakdown (anesthetized rabbits; arginine added to the amino acid solution) | Net muscle catabolism (anesthetized rabbits; post-absorptive rabbits) | Effect on muscle protein synthesis compared with EAAs (muscle protein synthesis) |
| --- | --- | --- | --- | --- |
| N=C(N)NCCC[C@H](N)C(=O)O [arginine] | stimulated | unchanged | virtually completely reversed |  |
| insulin: hormone, pharmacological treatment compared with EAAs |  |  |  | in the same range of effectiveness as EAAs |

From US20100286023A1, “Compositions and Methods for Increasing Muscle Mass, Strength, and Functional Performance in the Elderly” (priority 2008, published 2010)
